The values that follow come from patent US11458187B2, “Extracellular histones as biomarkers for prognosis and molecular targets for therapy” (OKLAHOMA MEDICAL RESEARCH FOUNDATION, priority 2007, dated 2022).

In one assay the test system is IL-6. Nature of the assay: IL-6 production from endothelium (ELISA). The note with it: FIG. 8. The assay is classed as cell-based, human. The procedure: FIG. 8—Histones induce IL-6 production from endothelium. EA.hy926 cells were stimulated with histone (0.1 mg/ml) or histone H3, histone H4 (50 μg/ml) for 24 hr at 37° C. in the absence or presence of APC (6 μg/ml), Anti-TLR2, Anti-TLR4 (10 μg/ml). Conditioned medium was measured for IL-6 production by IL-6 ELISA kit.
Background: ELISA stands for enzyme-linked immunosorbent assay.

The next assay deals with T1, calf thymus histone H4 (Bos taurus, UniProt P62803).
T1 construct: Purified calf thymus histone H3 (top panel) or histone H4 (bottom panel); purchased Roche; host or cells: calf thymus tissue
Nature of the assay: Cleavage of purified histone H4 by APC (SDS-PAGE). The assay is classed as biochemical. The following applies: 37° C. The procedure:
0.1 mg/ml histone H4 was incubated with 20 μg/ml human APC in PBS containing 1 mM CaCl2 and MgCl2 at 37° C. for 60 min. Sample was subjected to SDS-PAGE and GelCode Blue (PIERCE) staining or sent to matrix-assisted laser desorption ionization-time of flight facility at the University of Oklahoma Health Science Center for molecular weight determination.

For assay [1] the following is noted: severe sepsis; decreased from about 31%; cited from earlier work.
The subject of another assay is mice. Nature of the assay: Intravenous histone injection lethality in mice. The assay is classed as in vivo, mouse. The note with it: co-injection of 5 mg APC/kg with 75 mg/kg histones, n=5. The procedure:
To test the toxic effect of histones in vivo, the inventors injected 75 mg/kg of histones intravenously into mice. […] The calculated histone H3 concentration in the circulation of mice injected with the lethal dose of histones is about 5 times higher than the histone H3 level detected in the baboon plasma 8 hr post challenge with E. coli. […] The ratio of APC to histone H3 used to rescue the mice in vivo is similar to the ratio of APC to histone H3 used in endothelial cytoprotection experiment in vitro.

Assay [2] deals with baboons challenged with a lethal dose of E. coli. Nature of the assay: Baboon model of sepsis, lethal dose of E. coli with or without infused APC. The assay is classed as in vivo. The procedure: Six to 8 week male C57BL/6 mice (Jackson Lab) were used according to an animal protocol approved by Institutional Animal Care and Use Committees of the Oklahoma Medical Research Foundation. Baboon experiments were performed as previously described^5.
To test whether extracellular histones may be involved in the pathogenesis of diseases and if APC can cleave these histones in vivo, the inventors examined frozen archival plasma samples from a non-human primate model of sepsis in which baboons were challenged with a lethal dose of E. coli (Taylor et al., 1987). […] The inventors measured extracellular histones in the plasma from animals challenged with the lethal dose of E. coli either in the absence or presence of infused APC. Intact histone H3 was detected by Western blot in the plasma of the two baboons challenged with the lethal dose of E. coli and reached about 15 μg/ml 8 hours post-challenge (FIG. 14E). The inventors were unable to measure other histones in the same way because those anti-histone antibodies were not adequately sensitive. The increase in histone H3 accompanied the onset of acute renal failure as indicated by a high serum creatinine level, 2.65+/−0.05 mg/dL (normal range: 0.7-1.4 mg/dL) 8 hours post-challenge. […] APC co-infusion protected renal function as indicated by the normal serum creatinine level, 1.15+/−0.15 mg/dL at 8 hours post-challenge. […]

Assay [3] shares this test system. The following applies: infusion of APC (Taylor et al., 1987); cited from earlier work.
For a further assay, the system named is calf thymus histone H3. Put plainly: Cleavage of purified histone H3 by APC (SDS-PAGE). The assay is classed as biochemical. The following applies: 100 μg/ml histone H3, indicated concentrations of human APC, 1 hr, 37° C.; FIG. 13C.
The subject of another assay is IL-8. Put plainly: IL-8 production from endothelium (ELISA). The following applies: FIG. 9. The class given is cell-based, human. The procedure: FIG. 9—Histones induce IL-8 production from endothelium. EA.hy926 cells were stimulated with histone (0.1 mg/ml) or histone H3, histone H4 (50 μg/ml) for 24 hr at 37° C. in the absence or presence of APC (6 μg/ml), Anti-TLR2, Anti-TLR4 (10 μg/ml). Conditioned medium was measured for IL-8 production by […] ELISA kit.

The mark [4] stands for this setting: APC 6 μg/ml, Anti-TLR2, Anti-TLR4 10 μg/ml, 24 hr.
The mark [5] stands for this setting: stimulation of EA.hy926 24 hr, serum-free, histones 0.1 mg/ml, histone H3 or H4 50 μg/ml.

Method for calf thymus histone H3: (FIG. 13C) Purified calf thymus histone H3 (top panel) or histone H4 (bottom panel) (100 μg/ml) was incubated in Opti-MEM medium with the indicated concentrations of human APC for 1 hr at 37° C. Samples were then subjected to SDS-PAGE and coomassie blue staining.

Turning to “APC: Human recombinant APC (Xigris) purchased from Eli Lilly; drotrecogin alfa (activated protein C)”, the “inhibition of histone-induced IL-6 production” value with IL-6 (setting [4]) was “completely inhibits histone effect on IL-6 and IL-8 production”. For the same substance, the “cleavage of purified histone H4” value was “cleaved histone H3 and H4 in a dose dependent fashion” in the assay with calf thymus histone H4 (100 μg/ml histone H4, indicated concentrations of human APC, 1 hr, FIG. 13C); “also cleaved by APC” with calf thymus histone H4 (0.1 mg/ml histone H4, 20 μg/ml human APC, 60 min, 4-7 KD fragments, FIG. 4B). Further, the mortality result in assay [1] is “about 25%”. Also, the “rescue from lethal dose of histones” value in the assay on mice is listed as “rescued all of the mice”. The serum creatinine level in assay [2] (8 hours post-challenge, APC co-infusion, normal range 0.7-1.4 mg/dL, 2.65+/−0.05 without APC) stood at 1.15 ± 0.15 mg/dL. The “cleavage of extracellular histone H3 in plasma (Western blot)” value in assay [2] (two animals challenged with a lethal dose of E. coli and administered APC, FIG. 14E) was “can cleave extracellular histones in vivo”. In addition, the survival of baboons result in assay [3] is reported as “rescued these animals”. Further, the “cleavage of purified histone H3” value with calf thymus histone H3 was “cleaved histone H3 and H4 in a dose dependent fashion”. Moreover, the “inhibition of histone-induced IL-8 production” value in the assay with IL-8 (setting [4]) was “completely inhibits histone effect on IL-6 and IL-8 production”.

For the substance Pam3CSK4, in the assay with IL-6 (setting [5]), the IL-6 production result is recorded as “have no effect”. Further, the IL-8 production entry with IL-8 (setting [5]) was “have no effect”.
